In patent US20070043024A1, “Azacyclic compounds as inhibitors of sensory neurone specific channels” (priority 2003, published 2007) one finds IC50 data, which are given here for 32 compounds.

As usually defined, the pIC50 is the negative decadic logarithm of the IC50, by convention in mol/L.

pIC50: −log10 of the molar value.

T1 sequence (Q9Y5Y9 whole entry): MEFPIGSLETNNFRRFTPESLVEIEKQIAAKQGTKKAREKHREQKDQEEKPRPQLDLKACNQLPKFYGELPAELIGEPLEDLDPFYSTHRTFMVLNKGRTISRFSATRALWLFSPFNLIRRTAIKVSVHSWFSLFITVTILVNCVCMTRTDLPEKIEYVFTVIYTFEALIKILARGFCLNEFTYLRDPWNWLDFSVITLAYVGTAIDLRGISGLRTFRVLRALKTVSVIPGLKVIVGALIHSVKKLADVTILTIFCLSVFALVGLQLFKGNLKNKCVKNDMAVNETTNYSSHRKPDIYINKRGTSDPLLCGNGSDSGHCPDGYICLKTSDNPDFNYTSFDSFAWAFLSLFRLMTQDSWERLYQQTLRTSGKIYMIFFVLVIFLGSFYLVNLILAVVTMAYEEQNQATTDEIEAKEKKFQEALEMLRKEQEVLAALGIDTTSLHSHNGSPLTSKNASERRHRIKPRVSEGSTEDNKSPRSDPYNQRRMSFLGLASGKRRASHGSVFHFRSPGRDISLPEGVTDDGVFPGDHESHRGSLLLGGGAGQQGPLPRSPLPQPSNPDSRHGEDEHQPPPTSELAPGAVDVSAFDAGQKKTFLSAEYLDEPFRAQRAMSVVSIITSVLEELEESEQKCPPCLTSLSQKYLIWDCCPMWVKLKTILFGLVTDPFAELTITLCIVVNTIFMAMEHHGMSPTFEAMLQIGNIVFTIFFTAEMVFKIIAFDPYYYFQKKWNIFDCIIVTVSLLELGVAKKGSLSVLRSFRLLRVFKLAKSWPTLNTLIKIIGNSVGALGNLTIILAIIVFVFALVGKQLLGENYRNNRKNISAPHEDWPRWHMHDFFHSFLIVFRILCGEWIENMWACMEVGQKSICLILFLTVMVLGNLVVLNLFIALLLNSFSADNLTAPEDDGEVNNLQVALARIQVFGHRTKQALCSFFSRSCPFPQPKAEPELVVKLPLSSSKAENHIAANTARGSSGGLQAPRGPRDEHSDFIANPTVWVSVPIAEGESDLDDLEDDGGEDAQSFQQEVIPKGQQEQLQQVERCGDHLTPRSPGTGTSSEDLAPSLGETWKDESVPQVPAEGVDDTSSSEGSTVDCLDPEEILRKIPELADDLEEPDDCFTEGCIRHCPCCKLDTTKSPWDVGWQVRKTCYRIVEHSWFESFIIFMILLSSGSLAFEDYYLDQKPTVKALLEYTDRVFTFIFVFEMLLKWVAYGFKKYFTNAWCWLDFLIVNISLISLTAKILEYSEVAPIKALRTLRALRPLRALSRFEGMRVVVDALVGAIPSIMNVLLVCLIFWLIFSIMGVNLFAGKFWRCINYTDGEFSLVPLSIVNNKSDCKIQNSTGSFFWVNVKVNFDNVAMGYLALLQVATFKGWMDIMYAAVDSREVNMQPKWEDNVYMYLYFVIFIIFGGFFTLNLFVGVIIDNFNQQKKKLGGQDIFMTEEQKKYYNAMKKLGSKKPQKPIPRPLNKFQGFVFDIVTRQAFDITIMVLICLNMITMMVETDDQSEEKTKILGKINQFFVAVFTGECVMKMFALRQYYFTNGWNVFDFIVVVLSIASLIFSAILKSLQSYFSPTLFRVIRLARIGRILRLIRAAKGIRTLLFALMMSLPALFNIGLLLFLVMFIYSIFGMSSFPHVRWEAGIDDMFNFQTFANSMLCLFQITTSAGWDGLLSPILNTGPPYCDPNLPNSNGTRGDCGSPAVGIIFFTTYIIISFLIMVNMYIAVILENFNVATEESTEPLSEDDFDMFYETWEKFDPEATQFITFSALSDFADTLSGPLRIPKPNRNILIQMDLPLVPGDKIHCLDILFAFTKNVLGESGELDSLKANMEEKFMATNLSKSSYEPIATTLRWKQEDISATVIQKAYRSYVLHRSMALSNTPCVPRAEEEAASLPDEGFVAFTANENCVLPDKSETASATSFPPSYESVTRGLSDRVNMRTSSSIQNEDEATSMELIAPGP

The first assay concerns the target T1, human Nav1.8 (hNav1.8) ion channel (Homo sapiens, UniProt Q9Y5Y9).
T1 construct: expressed in transfected cells
As to the kind of experiment: Inhibition of human Nav1.8 stably expressed in SH-SY-5Y cells (membrane potential dye fluorescence assay). The assay is classed as cell-based.
Conditions: not given
How it is done:
Inhibition of Human Nav1.8 Stably Expressed in SH-SY-5Y Cells
A SH-SY-5Y neuroblastoma cell line stably expressing the human […] (hNav1.8) ion channel was constructed. This cell line has been used to develop a medium to high throughput assay for determining the ability of test compounds to inhibit membrane depolarisation mediated via the hNav1.8 channel.
SH-SY-5Y hNav1.8 are grown in adherent monolayer culture using 50:50 Ham's F-12/EMEM tissue culture medium supplemented with 15% (v/v) foetal bovine serum; 2 mM L-glutamine, 1% NEAA and 600 μg·ml^−1 Geneticin sulphate. Cells are removed from the tissue culture flask using trypsin/EDTA and re-plated into black walled, clear bottom 96-well assay plates at 50,000 cells·well^−1 24 hours prior to assay.
On the day of assay the cell assay plates are washed to remove cell culture medium using a sodium free assay buffer (145 mM tetramethyl ammonium chloride; 2 mM calcium chloride; 0.8 mM magnesium chloride hexahydrate; 10 mM HEPES; 10 mM glucose; 5 mM potassium chloride, pH 7.4). Fluorescent membrane potential dye solution (FLIPR™ membrane potential dye, Molecular Devices Corporation), containing 10 μM of a pyrethroid to prevent channel inactivation and 250 nM tetrodotoxin (TTX) to reduce interference from TTX-sensitive sodium channels present in the cell line. Test compound, initially dissolved in dimethyl sulfoxide but further diluted in sodium free buffer, is added to achieve the final test concentration range of 100 μM-0.05 μM.
Cell plates are incubated for 30 minutes at room temperature to allow equilibration of dye and test compound. Plates are then transferred to a fluorescence plate reader for fluorescence measurement using an excitation wavelength of 530 nm whilst measuring fluorescence emission at 565 nm. Baseline fluorescence levels are first determined before the addition of a sodium containing buffer (220 mM sodium chloride; 2 mM calcium chloride; 0.8 mM magnesium chloride hexahydrate; […]; 10 mM glucose; 5 mM potassium chloride. pH 7.4) to cause membrane depolarisation in those cells where channel block has not been effected (final sodium concentration=72.5 mM). Membrane depolarisation is registered by an increase in fluorescence emission at 565 nm.
The change in fluorescence seen in each test well upon the addition of sodium containing buffer is calculated relative to the baseline fluorescence for that well. This figure is then used for calculating the IC50 for each test compound.
Take `O=C(CN1CCc2cccc(O)c2C1)N(c1ccccc1)c1ccc(O)cc1` [Compound 176, 2-(8-Hydroxy-3,4-dihydro-1H-isoquinolin-2-yl)-N-(4-hydroxy-phenyl)-N-phenyl-acetamide]: the pIC50 is 5.23.

Staying with this assay, now noted: Table 2 (compound numbers of the list in the description); SH-SY-5Y hNav1.8 cells, inhibition of membrane depolarisation, FLIPR membrane potential dye, 250 nM TTX, test concentration range 100 μM-0.05 μM; read-out: IC50.
For the compound `O=C(CN1CCc2cccc(O)c2C1)N(c1ccccc1)c1ccccc1` [Compound 149, 2-(8-Hydroxy-3,4-dihydro-1H-isoquinolin-2-yl)-N,N-diphenyl-acetamide], the pIC50 is 5.04.

For `COc1cccc2c1CN(CC(=O)N(c1ccccc1)c1ccccc1)CC2` [Compound 150, 2-(8-Methoxy-3,4-dihydro-1H-isoquinolin-2-yl)-N,N-diphenyl-acetamide], the pIC50 was 5.75.

For the compound `COc1cc2c(cc1OC)CN(CC(=O)N1c3ccccc3S(=O)(=O)c3ccccc31)CC2` [Compound 151, 2-(6,7-Dimethoxy-3,4-dihydro-1H-isoquinolin-2-yl)-1-(5,5-dioxo-5H-5lambda*6*-phenothiazin-10-yl)-ethanone], the pIC50 was 5.13.

As to `COc1cc2c(cc1OC)CN(CC(=O)N1c3ccccc3Sc3ccccc31)CC2` [Compound 152, 2-(6,7-Dimethoxy-3,4-dihydro-1H-isoquinolin-2-yl)-1-phenothiazin-10-yl-ethanone], the pIC50 is 5.52.

For the compound `COc1cc2c(cc1OC)CN(CC(=O)N1c3ccccc3Sc3ccc(Cl)cc31)CC2` [Compound 153, 1-(2-Chloro-phenothiazin-10-yl)-2-(6,7-dimethoxy-3,4-dihydro-1H-isoquinolin-2-yl)-ethanone], the pIC50 is 5.27.

Consider `COc1cc2c(cc1OC)CN(CC(=O)N1c3ccccc3Sc3ccc(C(F)(F)F)cc31)CC2` [Compound 154, 2-(6,7-Dimethoxy-3,4-dihydro-1H-isoquinolin-2-yl)-1-(2-trifluoromethyl-phenothiazin-10-yl)-ethanone], for which the pIC50 is 4.91.

On to `COc1cc2c(cc1OC)CN(CC(=O)N1c3ccccc3Sc3ccc(C(C)=O)cc31)CC2` [Compound 155, 1-(2-Acetyl-phenothiazin-10-yl)-2-(6,7-dimethoxy-3,4-dihydro-1H-isoquinolin-2-yl)-ethanone], for which the negative logarithm of the IC50 (pIC50) was 5.20.

Consider `COc1cc2c(cc1OC)CN(CC(=O)N1c3ccccc3Sc3ccc(SC)cc31)CC2` [Compound 156, 2-(6,7-Dimethoxy-3,4-dihydro-1H-isoquinolin-2-yl)-1-(2-methylsulfanyl-phenothiazin-10-yl)-ethanone], for which the pIC50 is 5.63.

With `COc1cc2c(cc1OC)CN(CC(=O)N1c3ccccc3[S+]([O-])c3ccccc31)CC2` [Compound 157, 2-(6,7-Dimethoxy-3,4-dihydro-1H-isoquinolin-2-yl)-1-(5-oxo-5H-5lambda*4*-phenothiazin-10-yl)-ethanone], the pIC50 was 4.52.

With `CSc1ccc2c(c1)N(C(=O)CN1CCc3cccc(O)c3C1)c1ccccc1S2` [Compound 158, 2-(8-Hydroxy-3,4-dihydro-1H-isoquinolin-2-yl)-1-(2-methylsulfanyl-phenothiazin-10-yl)-ethanone], the pIC50 is 5.34.

For the compound `COc1cccc2c1CN(CC(=O)N1c3ccccc3Sc3ccc(SC)cc31)CC2` [Compound 159, 2-(8-Methoxy-3,4-dihydro-1H-isoquinolin-2-yl)-1-(2-methylsulfanyl-phenothiazin-10-yl)-ethanone], the pIC50 was 4.68.

As for `O=C(NCCN1CCc2cccc(O)c2C1)N1c2ccccc2Sc2ccccc21` [Compound 160, Phenothiazine-10-carboxylic acid [2-(8-hydroxy-3,4-dihydro-1H-isoquinolin-2-yl)-ethyl]-amide], the pIC50 was 6.02.

Turning to `COc1cc2c(cc1OC)CN(CCNC(=O)N1c3ccccc3Sc3ccccc31)CC2` [Compound 161, Phenothiazine-10-carboxylic acid [2-(6,7-dimethoxy-3,4-dihydro-1H-isoquinolin-2-yl)-ethyl]-amide], the negative logarithm of the IC50 (pIC50) was 5.95.

Regarding `COc1cccc2c1CN(CCNC(=O)N1c3ccccc3Sc3ccccc31)CC2` [Compound 162, Phenothiazine-10-carboxylic acid [2-(8-methoxy-3,4-dihydro-1H-isoquinolin-2-yl)-ethyl]-amide], the pIC50 was 6.01.

For `O=C(NCCN1CCc2cccc(O)c2C1)N1c2ccccc2Oc2ccccc21` [Compound 163, Phenoxazine-10-carboxylic acid [2-(8-hydroxy-3,4-dihydro-1H-isoquinolin-2-yl)-ethyl]-amide], the pIC50 was 6.11.

With `COc1cccc2c1CN(CCNC(=O)N1c3ccccc3Oc3ccccc31)CC2` [Compound 164, Phenoxazine-10-carboxylic acid [2-(8-methoxy-3,4-dihydro-1H-isoquinolin-2-yl)-ethyl]-amide], the pIC50 is 6.15.

Take `COc1cc2c(cc1OC)CN(CCNC(=O)N1c3ccccc3Oc3ccccc31)CC2` [Compound 165, Phenoxazine-10-carboxylic acid [2-(6,7-dimethoxy-3,4-dihydro-1H-isoquinolin-2-yl)-ethyl]-amide]: the pIC50 is 5.99.

As to `COc1cccc2c1CN(CCC(=O)NCCC(c1ccc(F)cc1)c1ccc(F)cc1)CC2` [Compound 166, N-[3,3-Bis-(4-fluoro-phenyl)-propyl]-3-(8-methoxy-3,4-dihydro-1H-isoquinolin-2-yl)-propionamide], the negative-log IC50 (pIC50) is 6.46.

Turning to `O=C(CN1CCc2cccc(O)c2C1)NN(c1ccccc1)c1ccccc1` [Compound 167, (8-Hydroxy-3,4-dihydro-1H-isoquinolin-2-yl)-acetic acid N′,N′-diphenyl-hydrazide], the pIC50 is 5.35.

`COc1cccc2c1CN(CC(=O)NN(c1ccccc1)c1ccccc1)CC2` [Compound 168, (8-Methoxy-3,4-dihydro-1H-isoquinolin-2-yl)-acetic acid N′,N′-diphenyl-hydrazide]: the negative-log IC50 (pIC50) was 5.70.

For `COc1cc2c(cc1OC)CN(CC(=O)NN(c1ccccc1)c1ccccc1)CC2` [Compound 169, (6,7-Dimethoxy-3,4-dihydro-1H-isoquinolin-2-yl)-acetic acid N′,N′-diphenyl-hydrazide], the pIC50 is 4.52.

Take `CCOC(=O)C1CN(C(=O)CN2CCc3cccc(O)c3C2)c2ccccc2O1` (centres unmarked) [Compound 170, 4-[2-(8-Hydroxy-3,4-dihydro-1H-isoquinolin-2-yl)-acetyl]-3,4-dihydro-2H-benzo[1,4]oxazine-2-carboxylic acid ethyl ester]: the pIC50 is 5.77.

Regarding `CCOC(=O)C1CN(C(=O)CN2CCc3cccc(OC)c3C2)c2ccccc2O1` (centres unmarked) [Compound 171, 4-[2-(8-Methoxy-3,4-dihydro-1H-isoquinolin-2-yl)-acetyl]-3,4-dihydro-2H-benzo[1,4]oxazine-2-carboxylic acid ethyl ester], the negative-log IC50 (pIC50) was 5.76.

In the case of `COc1cccc2c1CN(CC(=O)Nc1ccc(Oc3ccccc3)cc1)CC2` [Compound 172, 2-(8-Methoxy-3,4-dihydro-1H-isoquinolin-2-yl)-N-(4-phenoxy-phenyl)-acetamide], the pIC50 is 5.20.

For `O=C(CN1CCc2cccnc2C1)N1c2ccccc2Oc2ccccc21` [Compound 173, 2-(5,8-Dihydro-6H-[1,7]naphthyridin-7-yl)-1-phenoxazin-10-yl-ethanone], the negative-log IC50 (pIC50) is 5.25.

In the case of `COc1cccc2c1CN(CCNC(=O)Nc1ccc(Oc3ccccc3)cc1)CC2` [Compound 174, 1-[2-(8-Methoxy-3,4-dihydro-1H-isoquinolin-2-yl)-ethyl]-3-(4-phenoxy-phenyl)-urea], the pIC50 was 6.26.

As to `Nc1cccc2c1CN(CC(=O)N1c3ccccc3Oc3ccccc31)CC2` [Compound 175, 2-(8-Amino-3,4-dihydro-1H-isoquinolin-2-yl)-1-phenoxazin-10-yl-ethanone], the pIC50 was 5.82.

For the compound `O=C(CN1Cc2ccccc2C1)N1c2ccccc2Oc2ccccc21` [Compound 178, 2-(1,3-Dihydro-isoindol-2-yl)-1-phenoxazin-10-yl-ethanone], the pIC50 is 6.21.

Turning to `COc1cccc2c1CN(CC(=O)NC1c3ccccc3Oc3ccccc31)CC2` [Compound 180, 2-(8-Methoxy-3,4-dihydro-1H-isoquinolin-2-yl)-N-(9H-xanthen-9-yl)-acetamide], the pIC50 is 5.28.

Turning to `O=C(CN1CCc2cccnc2C1)N(c1ccccc1)c1ccccc1` [Compound 181, 2-(5,8-Dihydro-6H-[1,7]naphthyridin-7-yl)-N,N-diphenyl-acetamide], the pIC50 was 4.69.

With `COc1ccc(N(C(=O)CN2CCc3cccc(OC)c3C2)c2ccc(OC)cc2)cc1` [Compound 182, 2-(8-Methoxy-3,4-dihydro-1H-isoquinolin-2-yl)-N,N-bis-(4-methoxy-phenyl)-acetamide], the negative logarithm of the IC50 (pIC50) was 5.67.
